Measurements reported in PMC8224775, “Five Tetramic Acid Derivatives Isolated from the Iranian Fungus Colpoma quercinum CCTU A372” (Biomolecules, 2021).

tested on: Staphylococcus aureus DSM 346; assay: Antimicrobial serial dilution assay (MIC); format: cell-based; details: serial dilution 67 to 0.5 µg/mL, overnight
Experimental: Antimicrobial activity was determined by our established protocol, according to Becker et al.. In general, all of the pure compounds were dissolved in MeOH with a concentration of 1 mg/mL. Assessment of the antimicrobial activity was determined using the serial dilution assay method to calculate the minimum inhibitory concentration (MIC). In this method, the compounds were diluted in a range between 67 and 0.5 µg/mL in 96 well-plate and incubated with the test organism overnight. The next day, growth of the test organisms was visually observed, and MIC was determined in the lowest concentration where a clear zone (no growth of test organism) was observed. In our attempt for novel anti-infective compounds, an established standard protocol using various organisms representing a broad spectrum of pathogens of clinical interest, as well as sensitive indicator strains, was used (bacteria: Bacillus subtilis DSM 10, Staphylococcus aureus DSM 346, Acinetobacter baumanii DSM 30008, Chromobacterium violaceum DSM 30191, Escherichia coli DSM 1116 and Pseudomonas aeruginosa PA14; mycobacteria: Mycobacterium smegmatis ATCC 700084 and fungi: Candida albicans DSM 1665, Schizosaccharomyces pombe DSM 70572, Mucor hiemalis DSM 2656, Wickerhamomyces anomala DSM 6766 and Rhodotorula glutinis DSM 10134). Methanol as a solvent to dissolve the pure compounds was used as the negative control. Oxytetracycline, ciprofloxacin, gentamycin, and kanamycin were used as positive controls against bacteria, whereas nystatin was used against fungi. A detailed experimental procedure can be found in the SI.
Protocol: Antimicrobial Activity Assay
The assay was conducted as a minimum inhibitory concentration (MIC) assay in 96-well round- bottom microtiter plates using the parameters summarized in Table S1 and as already described in [S1]. Stocks of the test organisms were generated by growing the organisms overnight in 50 mL shaking flasks filled with 25 mL of the growth medium at 140r p m ( media and temperatures see Table S1). If the organisms were well grown the next day, which was checked by the occurrence of an optical density (OD) […] of the suspension (OD600 nm for bacteria, OD548 nm for fungi and M. smegmatis), aliquots of these were stored in 1.5 mL reaction tubes in a freezer at −80 °C for up to 12 months. Upon use, aliquots were unthawed and the OD of the suspension measured and adjusted by diluting with the respective growth medium. OD600 nm was adjusted to 0.01 and OD548 nm to 0.1. Subsequently, 150 μ L of the adj usted suspensions were added to all wells of a 96-well microtiter plate (one test organism per plate). In row A, additional 130 μ L of suspensions plus 20 μ L of the test compounds (1 mg/mL) and the controls (one compound/column) were added. MeOH was used as negative controls, while different positive controls (references) were used for the test organisms (see Table S1). Then, starting from row A, 150 μ L of t he suspension were transferred to the next row, the contents thoroughly mixed, and 150 μ L transferred to the following row. The remaining 150 μ L after row H were discarded. […]
of the test compounds, ranging from 66.7 μg/mL in row A to 0.52 μ g/mL in row H. The microtiter plates were then incubated overnight on a microplate shaker at 800 rpm at 30 or 37 °C (see Table S1) and were visually evaluated the next day. The MIC is defined as the lowest concentration where no growth of the test organism (clear zone) was observed. […]

MIC | Compound
n.i | CC(=O)OC(C(=O)O)C(C)C1C(C)=CC2CC(C)CCC2C1(C)C(O)=C1C(=O)C(C)N(C)C1=O (stereo not shown) [compound 1, Colposetin A]
n.i | CC1=CC2CC(C)CCC2C2(C)C(=O)OC(C(=O)O)C(C)C12 (stereo not shown) [compound 3, Colposetin C]
n.i | CC(C=CCC(C)C=CC=C(C)C(=O)C1=C(O)C(C)N(C)C1=O)=CC(C)C(O)C(=O)O (stereo not shown) [compound 5, Colpomenoic acid B]

Compound | MIC
CC(C=CCC(C)CCC=C(C)C(=O)C1=C(O)C(C)N(C)C1=O)=CC(C)C(O)C(=O)O (stereo not shown) [compound 4, Colpomenoic acid A] | n.i
